Results as given in paper PMC10897196, “Structure–activity characteristics of phenylalanine analogs selectively transported by L-type amino acid transporter 1 (LAT1)” (Scientific Reports, 2024).
“And” between values parts separate entries of the source, which are not always exact repeats. Equal values may be shown once.

What was measured:
human LAT1 [1] = target: T1, human LAT1 (Homo sapiens, UniProt Q01650); assay: Inhibition of L-[14C]leucine uptake in HEK293-hLAT1 cells; type: cell-based; details: for Inhibition of LAT1-mediated L-[14C]leucine uptake (in words, rank order): 1 μM L-[14C]leucine, 1 min, compounds at 10, 30, 100 μM; for Ki: L-[14C]leucine uptake, HEK293-hLAT1, mean ± S.E.M., n = 3–4, read-out: Ki (μM) LAT1; for Ki ratio (LAT2/LAT1): LAT1 selectivity, LAT2 Ki over LAT1 Ki
T1 construct: expressed in transfected cells
T1 sequence (Q01650 whole entry, one chain of several): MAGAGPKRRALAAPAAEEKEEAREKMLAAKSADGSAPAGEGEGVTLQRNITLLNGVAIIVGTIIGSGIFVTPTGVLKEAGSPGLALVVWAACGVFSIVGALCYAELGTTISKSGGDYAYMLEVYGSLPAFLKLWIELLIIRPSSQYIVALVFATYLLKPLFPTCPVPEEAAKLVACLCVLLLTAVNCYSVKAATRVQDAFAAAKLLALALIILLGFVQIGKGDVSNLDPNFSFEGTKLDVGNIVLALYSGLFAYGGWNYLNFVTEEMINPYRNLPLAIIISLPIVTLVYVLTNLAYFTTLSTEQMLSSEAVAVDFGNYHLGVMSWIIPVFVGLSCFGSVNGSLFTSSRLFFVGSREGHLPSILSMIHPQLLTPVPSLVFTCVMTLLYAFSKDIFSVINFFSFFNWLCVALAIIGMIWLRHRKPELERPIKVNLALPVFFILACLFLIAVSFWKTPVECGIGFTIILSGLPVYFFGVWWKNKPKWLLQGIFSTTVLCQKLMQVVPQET
Description: (§1) In this study, we used the HEK293 cells stably expressing human LAT1 or human LAT2, which form a heterodimeric complex with endogenous 4F2hc (CD98hc), required for plasma membrane localization. We first explored the impact of halogen group positioning in the benzene ring of Phe (Fig. 1) on its interaction with LAT1 and LAT2. […] We conducted inhibition experiments to measure the uptake of L-[^14C]leucine by LAT1 and L-[^14C]alanine by LAT2 in the presence or absence of Phe derivatives with an iodo group at position 2, 3, or 4 in the benzene ring.
(§2) The inhibition experiments were performed as described previously. HEK293-hLAT1 (1.5 × 10^5 cells/well) or HEK293-hLAT2 (2 × 10^5 cells/well) cells were plated onto poly-D-lysine-coated 24-well plates (Corning, New York, USA). Following a 2-day culture period, the uptake of 1 μM L-[^14C]leucine or L-[^14C]alanine was measured for 1 min in the absence or presence of non-radiolabeled test compounds at concentrations of 10, 30, and 100 μM. Radioactivity was quantified using a β-scintillation counter (LSC-3100; Aloka, Tokyo, Japan), and protein concentrations were determined with a Micro BCA Protein Assay Kit (Thermo Fisher Scientific, Rockford, IL). To calculate Ki values, the concentration-dependent uptake of L-[^14C]leucine or L-[^14C]alanine was analyzed in the presence and absence of test compounds[49]. The data were plotted against substrate concentration and fitted to Michaelis–Menten kinetics. Ki values were derived using nonlinear regression analysis with the enzyme kinetics inhibition module in GraphPad Prism software (Version 10.0.2; GraphPad Software Inc., San Diego, CA, USA).

human LAT2 [2] = target: T2, human LAT2 (Homo sapiens, UniProt Q9UHI5); assay: Inhibition of L-[14C]alanine uptake in HEK293-hLAT2 cells; type: cell-based; details: for Inhibition of LAT2-mediated L-[14C]alanine uptake (in words, rank order): 1 μM L-[14C]alanine, 1 min, compounds at 10, 30, 100 μM; for Ki: L-[14C]alanine uptake, HEK293-hLAT2, mean ± S.E.M., n = 3–4, read-out: Ki (μM) LAT2
T2 construct: expressed in transfected cells
T2 sequence (Q9UHI5 1-535): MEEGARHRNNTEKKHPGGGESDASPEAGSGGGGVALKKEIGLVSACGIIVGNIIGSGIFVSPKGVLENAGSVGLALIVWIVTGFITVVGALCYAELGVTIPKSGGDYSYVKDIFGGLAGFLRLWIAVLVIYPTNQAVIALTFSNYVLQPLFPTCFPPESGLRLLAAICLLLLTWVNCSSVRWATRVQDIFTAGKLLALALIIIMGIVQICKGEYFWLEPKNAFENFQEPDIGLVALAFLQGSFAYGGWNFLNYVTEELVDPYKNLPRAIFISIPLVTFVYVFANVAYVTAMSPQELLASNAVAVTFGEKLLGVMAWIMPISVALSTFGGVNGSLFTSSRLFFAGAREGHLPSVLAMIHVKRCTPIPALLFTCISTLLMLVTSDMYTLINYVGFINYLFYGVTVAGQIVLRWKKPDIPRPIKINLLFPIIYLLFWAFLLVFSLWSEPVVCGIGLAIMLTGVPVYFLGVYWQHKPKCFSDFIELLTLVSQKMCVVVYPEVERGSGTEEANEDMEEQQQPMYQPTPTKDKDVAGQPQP
T2 sequence (P08195 1-529 partner): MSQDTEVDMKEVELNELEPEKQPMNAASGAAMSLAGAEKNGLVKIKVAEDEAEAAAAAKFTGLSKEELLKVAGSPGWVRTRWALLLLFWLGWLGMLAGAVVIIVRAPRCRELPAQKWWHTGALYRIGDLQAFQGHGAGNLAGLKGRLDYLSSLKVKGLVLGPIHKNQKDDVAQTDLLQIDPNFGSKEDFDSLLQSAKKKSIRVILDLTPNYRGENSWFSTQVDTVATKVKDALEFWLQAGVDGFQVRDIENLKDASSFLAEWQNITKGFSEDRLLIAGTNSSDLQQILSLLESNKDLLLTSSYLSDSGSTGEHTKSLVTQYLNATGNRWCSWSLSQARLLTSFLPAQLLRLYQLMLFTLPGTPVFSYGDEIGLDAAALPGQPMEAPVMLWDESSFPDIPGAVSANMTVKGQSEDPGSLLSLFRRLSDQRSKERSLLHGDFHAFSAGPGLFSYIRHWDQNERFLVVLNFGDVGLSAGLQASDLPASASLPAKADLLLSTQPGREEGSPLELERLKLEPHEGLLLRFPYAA
Description: as §1, §2

human LAT1 [3] = target: T1, human LAT1; assay: Efflux of pre-loaded L-[14C]leucine from HEK293-hLAT1 cells induced by extracellular compounds; type: cell-based; details: for Km / Vmax of efflux (% radioactivity/min): LAT1, L-[14C]leucine efflux, mean ± S.E.M., n = 3; for Km / Vmax of efflux (% radioactivity/min) / LAT1-mediated L-[14C]leucine efflux induced (in words): 1 min; for LAT1-mediated L-[14C]leucine efflux induced (in words): compounds at 10, 30, 100 μM
Procedure: (§3) We evaluated the efflux of pre-loaded L-[^14C]leucine from LAT1 and pre-loaded L-[^14C]alanine from LAT2 induced by extracellularly applied compounds.
(§4) Efflux experiments were performed as described previously. Cells cultured 48 h were pre-loaded with 5 μM L-[^14C]leucine or L-[^14C]alanine for 10 min at 37 °C. The cells were then washed, and the efflux was induced by incubating cells for 1 min in either the absence or presence of non-radiolabeled test compounds at indicated concentrations. The efflux time of 1 min fell within the linear range of time-dependent substrate efflux mediated by LAT1 and LAT2 (Supplementary Fig. S2). Following incubation, the medium was collected and radioactivity was measured in both the medium and the cells. Efflux was quantified as the percentage of radioactivity released into the medium, calculated using the formula: radioactivity of medium/(radioactivity of medium + radioactivity of cells) × 100%.
(§5) The kinetic parameters for the efflux of L-[^14C]leucine or L-[^14C]alanine induced by various concentrations of extracellularly-applied test compounds were analyzed. The baseline efflux values—those obtained in the absence of test compounds—were subtracted from the values measured in the presence of the compounds. The resultant data were fitted to Michaelis–Menten kinetics to determine the Km and Vmax by nonlinear regression analysis using “enzyme kinetics-velocity as a function of substrate” module within GraphPad Prism software.

human LAT2 [4] = target: T2, human LAT2; assay: Efflux of pre-loaded L-[14C]alanine from HEK293-hLAT2 cells induced by extracellular compounds; type: cell-based; details: for Vmax of efflux (% radioactivity/min): LAT2, L-[14C]alanine efflux, mean ± S.E.M., n = 3; for Vmax of efflux (% radioactivity/min) / LAT2-mediated L-[14C]alanine efflux induced (in words): 1 min; for LAT2-mediated L-[14C]alanine efflux induced (in words): compounds at 10, 30, 100 μM
Procedure: as §3, §4, §5

[5] = design: method as in PMID 11901210; details: correlated with LAT1 Ki; cited from earlier work

N[C@@H](Cc1ccccc1Br)C(=O)O [2-Br-Phe]
Inhibition of LAT1-mediated L-[14C]leucine uptake (in words, rank order) (human LAT1 [1]): 2-Cl-Phe < 2-Br-Phe

N[C@@H](Cc1ccccc1Cl)C(=O)O [2-Cl-Phe]
Inhibition of LAT1-mediated L-[14C]leucine uptake (in words, rank order) (human LAT1 [1]): Phe < 2-Cl-Phe

N[C@@H](Cc1ccccc1F)C(=O)O [2-F-Phe]
Inhibition of LAT1-mediated L-[14C]leucine uptake (in words, rank order) (human LAT1 [1]): 2-F-Phe = Phe

N[C@@H](Cc1ccccc1I)C(=O)O [2-I-Phe, 2-iodo-L-phenylalanine]
Inhibition of LAT1-mediated L-[14C]leucine uptake (in words, rank order) (human LAT1 [1]): markedly inhibited and 2-Br-Phe < 2-I-Phe and inhibit | Ki (human LAT1 [1]): 9.56 ± 1.67 µM | Ki ratio (LAT2/LAT1) (human LAT1 [1]): 9.16 | Inhibition of LAT2-mediated L-[14C]alanine uptake (in words, rank order) (human LAT2 [2]): 2-I-Phe = Phe | Ki (human LAT2 [2]): 87.6 ± 11.9 µM | Km (human LAT1 [3]): 2.79 ± 0.76 µM | Vmax of efflux (% radioactivity/min) (human LAT1 [3]): 7.62 ± 0.30 % radioactivity/min | LAT1-mediated L-[14C]leucine efflux induced (in words) (human LAT1 [3]): transported by LAT1 as substrates | Vmax of efflux (% radioactivity/min) (human LAT2 [4]): 39.65 ± 0.44 % radioactivity/min | LAT2-mediated L-[14C]alanine efflux induced (in words) (human LAT2 [4]): comparable to that of Phe

N[C@@H](Cc1cccc(Br)c1)C(=O)O [3-Br-Phe, 3-Bromo-L-phenylalanine]
Inhibition of LAT1-mediated L-[14C]leucine uptake (in words, rank order) (human LAT1 [1]): 3-Cl-Phe < 3-Br-Phe | Inhibition of LAT2-mediated L-[14C]alanine uptake (in words, rank order) (human LAT2 [2]): 3-Cl-Phe < 3-Br-Phe

N[C@@H](Cc1cccc(Cl)c1)C(=O)O [3-Cl-Phe]
Inhibition of LAT1-mediated L-[14C]leucine uptake (in words, rank order) (human LAT1 [1]): 3-F-Phe < 3-Cl-Phe | Inhibition of LAT2-mediated L-[14C]alanine uptake (in words, rank order) (human LAT2 [2]): 3-F-Phe < 3-Cl-Phe

N[C@@H](Cc1cccc(F)c1)C(=O)O [3-F-Phe]
Inhibition of LAT1-mediated L-[14C]leucine uptake (in words, rank order) (human LAT1 [1]): Phe < 3-F-Phe | Inhibition of LAT2-mediated L-[14C]alanine uptake (in words, rank order) (human LAT2 [2]): Phe < 3-F-Phe

N[C@@H](Cc1cccc(I)c1)C(=O)O [3-I-Phe]
Inhibition of LAT1-mediated L-[14C]leucine uptake (in words, rank order) (human LAT1 [1]): markedly inhibited and 3-Br-Phe < 3-I-Phe | Inhibition of LAT2-mediated L-[14C]alanine uptake (in words, rank order) (human LAT2 [2]): 4-I-Phe < 3-I-Phe and 3-Br-Phe < 3-I-Phe

N[C@@H](Cc1ccc(I)cc1)C(=O)O [4-I-Phe]
Inhibition of LAT1-mediated L-[14C]leucine uptake (in words, rank order) (human LAT1 [1]): comparable to that of Phe | Inhibition of LAT2-mediated L-[14C]alanine uptake (in words, rank order) (human LAT2 [2]): Phe < 4-I-Phe

N[C@@H](Cc1ccc(O)c(O)c1)C(=O)O [L-DOPA]
Carbonyl oxygen charge [5]: −0.5633

N[C@@H](Cc1ccccc1)C(=O)O [Phe, phenylalanine]
Inhibition of LAT1-mediated L-[14C]leucine uptake (in words, rank order) (human LAT1 [1]): inhibit | Ki (human LAT1 [1]): 43.5 ± 6.28 µM | Ki ratio (LAT2/LAT1) (human LAT1 [1]): 2.53 | Ki (human LAT2 [2]): 110 ± 20 µM | Km (human LAT1 [3]): 8.92 ± 1.08 µM | Vmax of efflux (% radioactivity/min) (human LAT1 [3]): 13.32 ± 0.31 % radioactivity/min | Ratio to Vmax of Phe (human LAT1 [3]; LAT1 efflux): (1.00) | LAT1-mediated L-[14C]leucine efflux induced (in words) (human LAT1 [3]): induced a notable efflux | Vmax of efflux (% radioactivity/min) (human LAT2 [4]): 39.60 ± 0.74 % radioactivity/min | Ratio to Vmax of Phe (human LAT2 [4]; LAT2 efflux): (1.00)

N[C@H](C(=O)O)c1ccccc1 [Phg, L-phenylglycine]
Inhibition of LAT1-mediated L-[14C]leucine uptake (in words, rank order) (human LAT1 [1]): inhibit | Ki (human LAT1 [1]): 96.8 ± 13.2 µM | Ki ratio (LAT2/LAT1) (human LAT1 [1]): 2.50 | Inhibition of LAT2-mediated L-[14C]alanine uptake (in words, rank order) (human LAT2 [2]): minimal inhibition | Ki (human LAT2 [2]): 242 ± 20.8 µM

N[C@@H](Cc1ccc(O)cc1)C(=O)O [Tyr]
Carbonyl oxygen charge [5]: −0.5635

C[C@](N)(Cc1ccc(O)c(O)c1)C(=O)O [α-methyl-DOPA]
Carbonyl oxygen charge [5]: −0.5558

C[C@](N)(Cc1ccccc1)C(=O)O [α-methyl-Phe, α-Methyl-L-phenylalanine, reference compound]
Inhibition of LAT1-mediated L-[14C]leucine uptake (in words, rank order) (human LAT1 [1]): inhibit | Ki (human LAT1 [1]): 157 ± 19.5 µM | Ki ratio (LAT2/LAT1) (human LAT1 [1]): 10.74 | Inhibition of LAT2-mediated L-[14C]alanine uptake (in words, rank order) (human LAT2 [2]): minimal inhibition | Ki (human LAT2 [2]): 1680 ± 272 µM | Km (human LAT1 [3]): 67.9 ± 7.39 µM | Vmax of efflux (% radioactivity/min) (human LAT1 [3]): 15.45 ± 0.45 % radioactivity/min | LAT1-mediated L-[14C]leucine efflux induced (in words) (human LAT1 [3]): transported by LAT1 as substrates | Vmax of efflux (% radioactivity/min) (human LAT2 [4]): 27.28 ± 0.70 % radioactivity/min | LAT2-mediated L-[14C]alanine efflux induced (in words) (human LAT2 [4]): not efficiently transported by LAT2

C[C@](N)(Cc1ccc(O)cc1)C(=O)O [α-methyl-Tyr]
Carbonyl oxygen charge [5]: −0.5579
